Source: ChEMBL document CHEMBL2380305, “Discovery of thiazolobenzoxepin PI3-kinase inhibitors that spare the PI3-kinase β isoform” (Bioorg Med Chem Lett, 2013)

What was measured:
in vivo [1] = conditions: nude, mouse, plasma, iv, 1 mg/kg
in vivo [2] = conditions: Sprague-Dawley, rat, plasma, iv, 1 mg/kg
Rattus norvegicus = test: Unbound plasma clearance in Sprague-Dawley rat at 1 mg/kg, iv; format: ADME, organism-based; design: dose 1 mg/kg, route intravenous; conditions: in vivo
[3] = Apparent permeability across apical to basolateral side in MDCK cells; format: ADME, cell-based, Canis lupus familiaris; conditions: dog
[4] = Oral bioavailability in Sprague-Dawley rat at 5 mg/kg; format: ADME, organism-based; conditions: in vivo
[5] = Oral bioavailability in Beagle dog at 2 mg/kg; format: ADME, organism-based, Canis lupus familiaris; conditions: in vivo
[6] = Plasma clearance in Beagle dog at 1 mg/kg, iv; format: ADME, organism-based, Canis lupus familiaris; design: dose 1 mg/kg, route intravenous
[7] = Oral bioavailability in nude mouse at 25 mg/kg; format: ADME, organism-based; conditions: in vivo
[8] = Plasma clearance in dog; format: ADME, organism-based, Canis lupus familiaris

Compound | clearance (in vivo [1]) [mL/min/kg] | clearance (in vivo [2]) [mL/min/kg] | further results
CC(C)n1ncnc1-c1nc2c(s1)CCOc1cc(C3CN(CC(C)(C)O)C3)ccc1-2 | 170 | 163 | –
CC(C)n1ncnc1-c1nc2c(s1)CCOc1cc(C3CN(C[C@H](O)CO)C3)ccc1-2 | 165 | 57 | –
CC(C)n1ncnc1-c1cc2c(s1)-c1ccc(C(N)=O)cc1OCC2 | – | – | clearance [8]: 100 mL/min/kg
CC(C)n1ncnc1-c1nc2c(s1)CCOc1cc(C3CN(CCO)C3)ccc1-2 | 132 | 128 | –
CC(C)n1ncnc1-c1nc2c(s1)CCOc1cc(C3CN(C(C)(C)C(N)=O)C3)ccc1-2 | 104 | 55 | –
CC(C)n1ncnc1-c1nc2c(s1)CCOc1cc(C3CN(C(=O)C(C)(C)N)C3)ccc1-2 | – | 60 | CL free (Rattus norvegicus): 1153 mL/min/kg

More lines, main results first:

clearance (in vivo [1]) [mL/min/kg] | clearance (in vivo [2]) [mL/min/kg] | Compound | further results
3.1 | 6.8 | CC(C)n1ncnc1-c1nc2c(s1)CCOc1cc(-c3cnn(CC(C)(C)O)c3)ccc1-2 | –
13.4 | 10 | CC(C)n1ncnc1-c1nc2c(s1)CCOc1cc(-c3cnn(C(C)(C)C(N)=O)c3)ccc1-2 | CL free (Rattus norvegicus): 625 mL/min/kg
9.5 | 5.4 | CC(C)n1ncnc1-c1nc2c(s1)CCOc1cc(-c3cnn(CCO)c3)ccc1-2 | Papp A→B [3]: 16 ×10⁻⁶ cm/s; bioavailability [4]: 83%; bioavailability [5]: 22%; clearance [6]: 14 mL/min/kg; bioavailability [7]: 110%
22 | 84 | CC(C)n1c(-c2nc3c(s2)CCOc2cc(-c4cnn(CC(C)(C)O)c4)ccc2-3)n[nH]c1=O | –
2.2 | 1.9 | Cc1nc(-c2nc3c(s2)CCOc2cc(-c4cnn(CCO)c4)ccc2-3)n(C(C)C)n1 | –
3.2 | 6.1 | CC(C)n1ncnc1-c1nc2c(s1)CCOc1cc(-c3cnn(CS(C)(=O)=O)c3)ccc1-2 | –
4 | 55 | CC(C)n1nc(N)nc1-c1nc2c(s1)CCOc1cc(-c3cnn(CC(C)(C)O)c3)ccc1-2 | –
